Experimental data reported in patent publication US20100129465A1, “Methods and Compositions Related to Acne Treatment” (priority 2008, published 2010).

Tested on: skin and eyes
Details: aqueous solution, pH=3.0

sting or burning when applied to freshly shaven skin: stings or burns
Structure (SMILES): O=C(O)CO [glycolic acid]
